Read-outs that look alike come from different tables or passages of the source.
Legend:
[1] = target: dihydrodipicolinate reductase (DHPR) (Escherichia coli, UniProt P04036); assay: DHPR kinetic assay, spectrophotometric oxidation of NADPH (340 nm); format: biochemical
Description: For DHPR analysis, the compounds were screened using a kinetic protocol that spectrophotometrically evaluates oxidation of NADPH.
Stock solutions of each of the reagents were prepared in the following concentrations. Dilutions of the stock solutions were prepared prior to running the assay in the concentrations indicated below. DHPR was diluted in 10 mM HEPES at a pH of 7.4. DHPS (dihydrodipicolinate synthase) was not diluted and was stored in eppindorf tubes.
The L-ASA (L-aspartate semialdehyde) solution was prepared in the following manner. 180 μM stock solution of ASA was prepared. 100 μl of the ASA stock solution was mixed with 150 μl of concentrated NaHCO3 and 375 μl of H2O. For use in the assay, 28.8 mM L-ASA was equal to 625 μl of the solution. The L-ASA stock solution was kept at a temperature of −20° C. After dilution, the pH of the 28.8 mM solution was checked and maintained between 1 and 2.
The DHPS reaction was monitored at 340 nm prior to and after addition of the inhibitor to detect background reaction with the inhibitor. The solution for background detection was a 945 μl solution containing 0.1 HEPES (pH 7.8), 1 mM pyruvate, 6 μM NADPH, 40 μM L-ASA, and 7 μl of 1 mg/ml DHPS at 25° C. in the volumes provided above. The sample solution was then mixed and incubated for 10 minutes. Next, 500 nM solutions of the inhibitors and enough DMSO to provide a final DMSO concentration of 5% of the total assay volume were added. The solution was mixed and incubated for an additional 6 minutes.
In DHPR samples, 5 μl of the diluted DHPR enzyme were added. The sample was mixed for 20 seconds and then the reaction was run for 10 minutes. After a 50 second lag, the samples were read in a Cary spectrophotometer at 340 nm. Reading of the samples was continued until 300 seconds. Cuvette #1 contained the control reaction (no inhibitor), and cuvette #2 contained the positive control reaction in which Cibacron Blue at 2.58 μM was substituted for inhibitor to yield 70 to 80% inhibition. The substrate was kept at a level at least 10 times the Km. The final concentration of L-ASA was about 1 mM.

[2] = target: T1, HMG CoA reductase (HMGCoAR) (UniProt P04035); assay: HMGCoAR kinetic assay, spectrophotometric oxidation of NADPH (340 nm); format: biochemical; settings: for IC50: common ligand mimics, Examples 23/24
T1 sequence (P04035 1-888): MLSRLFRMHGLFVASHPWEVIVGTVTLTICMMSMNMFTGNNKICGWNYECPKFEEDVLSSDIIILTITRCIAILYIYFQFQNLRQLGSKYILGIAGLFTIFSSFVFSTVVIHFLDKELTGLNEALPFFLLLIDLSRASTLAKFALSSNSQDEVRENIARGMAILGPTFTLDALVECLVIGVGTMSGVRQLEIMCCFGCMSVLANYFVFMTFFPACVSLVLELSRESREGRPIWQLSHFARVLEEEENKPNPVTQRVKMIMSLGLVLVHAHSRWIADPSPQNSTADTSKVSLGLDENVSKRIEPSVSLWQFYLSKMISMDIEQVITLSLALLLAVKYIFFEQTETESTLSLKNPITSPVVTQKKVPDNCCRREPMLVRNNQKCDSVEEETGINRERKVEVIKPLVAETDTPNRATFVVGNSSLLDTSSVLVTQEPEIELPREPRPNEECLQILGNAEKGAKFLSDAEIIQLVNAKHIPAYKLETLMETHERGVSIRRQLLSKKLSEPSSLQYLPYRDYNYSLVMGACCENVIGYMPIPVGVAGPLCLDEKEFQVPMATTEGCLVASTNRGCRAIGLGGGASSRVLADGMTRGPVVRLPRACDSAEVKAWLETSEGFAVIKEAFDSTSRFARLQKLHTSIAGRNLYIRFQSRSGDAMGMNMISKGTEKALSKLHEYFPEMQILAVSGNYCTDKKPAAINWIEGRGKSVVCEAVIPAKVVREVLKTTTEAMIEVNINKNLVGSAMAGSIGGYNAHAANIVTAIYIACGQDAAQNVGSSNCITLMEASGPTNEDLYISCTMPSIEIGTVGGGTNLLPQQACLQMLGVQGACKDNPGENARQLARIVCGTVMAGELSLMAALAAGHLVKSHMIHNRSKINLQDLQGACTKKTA
Description: For HMGCoAR analysis, the compounds were screened using a kinetic protocol that spectrophotometrically evaluates oxidation of NADPH.
Stock solutions of each of the reagents were prepared in the following concentrations. Dilutions of the stock solutions were prepared prior to running the assay in the concentrations indicated below. The enzyme was diluted in 1 M NaCl. To prepare the dilution buffer, 10 μl of HMGCoAR (1 mg/ml) was mixed with 133 μl of 3 M NaCl solution and 257 μl of 25 mM KH2PO4 buffer (pH 7.5; containing 50 mM NaCl, […] EDTA (ethylenediaminetetraacetic acid), and 5 mM DTT (dithiothreitol).
The HMGCoAR reaction was monitored at 340 nm prior to and after addition of the inhibitor to detect background reaction with the inhibitor. Solutions of 100 μM of the inhibitors in DMSO were prepared to provide a final DMSO concentration of 2% of the total assay volume. These solutions were incubated for 6 minutes at 25° C. in a 994 μl of a solution containing 25 mM KH2PO4, pH 7.5, 160 μM HMGCoA, 13 μM NADPH, 50 mM NaCl, 1 mM EDTA, and 5 mM DTT. The reaction was then initiated with 5 μl of HMGCoAR enzyme (1:40 dilution of 0.65 mg/ml). After the enzyme was added, the solution was mixed for 20 seconds, and the reaction was run for 10 minutes. After a 50 second lag, the samples were read in a Cary spectrophotometer at 340 nm. Reading of the samples was continued until 300 seconds. Cuvette #1 contained the control reaction (no inhibitor), and cuvette #2 contained the positive control reaction in which Cibacron Blue at 2.05 μM was substituted for inhibitor to yield 50 to 70% inhibition. The substrate was kept at a level at least 10 times the Km.

[3] = common ligand mimics, Examples 23/24 (FIG. 5, FIG. 6), read-out: IC50 for DHPR

Sequence of dihydrodipicolinate reductase (DHPR) (P04036 whole entry): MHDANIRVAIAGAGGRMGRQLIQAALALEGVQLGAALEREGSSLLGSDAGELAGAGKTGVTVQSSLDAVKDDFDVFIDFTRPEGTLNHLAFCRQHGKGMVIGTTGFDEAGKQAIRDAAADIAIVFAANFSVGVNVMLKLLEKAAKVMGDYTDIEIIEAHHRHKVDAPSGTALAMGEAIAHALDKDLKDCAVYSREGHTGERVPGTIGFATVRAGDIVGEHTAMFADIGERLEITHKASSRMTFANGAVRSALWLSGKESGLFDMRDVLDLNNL

Compound	IC50 [1]	IC50 [2]	IC50 [1, 3]	also measured
Nc1c(S(=O)(=O)O)cc(Nc2ccc(Nc3nc(Cl)nc(Nc4ccccc4S(=O)(=O)O)n3)c(S(=O)(=O)O)c2)c2c1C(=O)c1ccccc1C2=O [Cibacron Blue, reference compound]				inhibition at 2.58 µM ([1]; Cibacron Blue at 2.58 μM, read-out: inhibition of DHPR, positive control): 70 to 80%
COc1cc(C=C2SC(N)=NC2=O)ccc1O [5-(4-hydroxy-3-methoxy-benzylidene)-2-imino-thiazolidin-4-one]	> 75 µM	> 100 µM		
N=C1NC(=O)C(=Cc2ccc(C(=O)O)cc2)S1 [4-(2-imino-4-oxo-thiazolidin-5-ylidenemethyl)-benzoic acid]			> 25 µM	
N=C1NC(=O)C(=Cc2ccc(O)c([N+](=O)[O-])c2)S1 [5-(4-hydroxy-3-nitro-benzylidene)-2-imino-thiazolidin-4-one]	> 100 µM	> 90 µM		
COc1cc(O)ccc1C=C1SC(=N)NC1=O [5-(4-hydroxy-2-methoxy-benzylidene)-2-imino-thiazolidin-4-one]			> 75 µM	inhibition of HMGCoAR (in words) ([2]; Example 24 (FIG. 6)): no inhibition
